# Laboratory results as given in US12052991B2, “Substituted pyridinyloxybenzenes and salts thereof and use thereof as herbicidal agents” (Bayer Aktiengesellschaft, priority 2018, dated 2024).
# Assays:
# Type in all cases: in vivo
# [1] = tested on: Echinochloa crus-galli (ECHCG); test: Herbicidal post-emergence action (Table B1); settings: 1280 g/ha; rated visually after about 3 weeks; 100% = plants have died, 0% = like control plants
# Method: (§1) Seeds of mono- and dicotyledonous weed plants were placed in plastic pots in sandy loam soil (doubly sown with in each case one species of mono- or dicotyledonous weed plants per pot), covered with soil and cultivated in a greenhouse under controlled growth conditions. 2 to 3 weeks after sowing, the test plants were treated at the one-leaf stage. The compounds of the invention, formulated in the form of wettable powders (WP) or as emulsion concentrates (EC), were applied onto the green parts of the plants as aqueous suspension or emulsion with addition of 0.5% additive at a water application rate of 600 liters per hectare (converted). After the test plants had been kept in the greenhouse under optimum growth conditions for about 3 weeks, the activity of the preparations was rated visually in comparison to untreated controls. For example, 100% activity=the plants have died, 0% activity=like control plants. Tables B1 to B12 below show the effects of selected compounds of the general formula (I) according to Table 1 on various harmful plants and an application rate corresponding to 1280 or 320 g/ha, which were obtained by the experimental procedure mentioned above.
# Poa annua (POAAN) [2] = test: Herbicidal post-emergence action (Table B3); settings: rated visually after about 3 weeks, 100% = plants have died, 0% = like control plants
# Summary of the method: (§2)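 Activity was scored visually against untreated plants roughly 3 weeks after treatment, 0% meaning like control and 100% plant death. Application was post-emergence onto green parts at the one-leaf stage, as aqueous suspension/emulsion with 0.5% additive, 600 l/ha, delivering 1280 or 320 g/ha to greenhouse plants in sandy loam.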
# [3] = tested on: Abutilon theophrasti (ABUTH); test: Herbicidal post-emergence action (Table B5); settings: rated visually after about 3 weeks, 100% = plants have died, 0% = like control plants
# Summary of the method: as §2
# [4] = tested on: Amaranthus retroflexus (AMARE); test: Herbicidal post-emergence action (Table B6); settings: visual rating about 3 weeks after treatment, 100% = plants have died, 0% = like control plants
# Summary of the method: as §2
# Stellaria media (STEME) [5] = test: Herbicidal post-emergence action (Table B8); settings: visual rating about 3 weeks after treatment, 100% = plants have died, 0% = like control plants
# Summary of the method: as §2
# [6] = tested on: Alopecurus myosuroides (ALOMY); test: Herbicidal post-emergence action (Table B9); settings: rated visually after about 3 weeks, 100% = plants have died, 0% = like control plants
# Method: as §1
# [7] = tested on: Digitaria sanguinalis (DIGSA); test: Herbicidal post-emergence action (Table B10); settings: visual rating about 3 weeks after treatment, 100% = plants have died, 0% = like control plants
# Method: as §1
# Bassia scoparia (KCHSC) [8] = test: Herbicidal post-emergence action (Table B11); settings: visual rating about 3 weeks after treatment, 100% = plants have died, 0% = like control plants
# Summary of the method: as §2
# Veronica persica (VERPE) [9] = test: Herbicidal post-emergence action (Table B12); settings: visual rating about 3 weeks after treatment, 100% = plants have died, 0% = like control plants
# Summary of the method: as §2
# [10] = tested on: Echinochloa crus-galli (ECHCG); test: Herbicidal pre-emergence action, test C (Table C1); settings: dosage 1280 g/ha; visual scoring after about 3 weeks; 100% = plants have died, 0% = like control plants
# Excerpt: (§3) Seeds of mono- and dicotyledonous weed plants were placed in plastic pots in sandy loam soil (doubly sown with one species each of mono- or dicotyledonous weed plants per pot) and covered with soil. The compounds of the invention, formulated in the form of wettable powders (WP) or as emulsion concentrates (EC), were then applied onto the surface of the covering soil as aqueous suspension or emulsion with addition of 0.5% additive at a water application rate of 600 liters per hectare (converted). After the treatment, the pots were placed in a greenhouse and kept under good growth conditions for the test plants. After about 3 weeks, the effect of the preparations was scored visually in comparison with untreated controls as percentages. For example, 100% activity=the plants have died, 0% activity=like control plants. Tables C1 to C12 below show the effects of selected compounds of the general formula (I) according to Table 1 on various harmful plants and an application rate corresponding to 1280 or 320 g/ha, which were obtained by the experimental procedure mentioned above.
# Lolium rigidum (LOLRI) = test: Herbicidal pre-emergence action, test C (Table C2); settings: dosage 1280 g/ha; visual scoring after about 3 weeks; 100% = plants have died, 0% = like control plants
# Excerpt: as §3
# Poa annua (POAAN) [11] = test: Herbicidal pre-emergence action, test C (Table C3); settings: visual scoring after about 3 weeks, 100% = plants have died, 0% = like control plants
# Summary of the method: (§4)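 Visual percentage damage relative to untreated pots (0% = like control, 100% = dead) was rated roughly 3 weeks after pre-emergence treatment in the greenhouse. Sandy loam pots were sown with weed seeds and covered with soil. The surface was sprayed with WP or EC formulations plus 0.5% additive at 600 L/ha, delivering 1280 or 320 g/ha.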
# Setaria viridis (SETVI) = test: Herbicidal pre-emergence action, test C (Table C4); settings: visual scoring after about 3 weeks, 100% = plants have died, 0% = like control plants
# Summary of the method: as §4
# [12] = tested on: Abutilon theophrasti (ABUTH); test: Herbicidal pre-emergence action, test C (Table C5); settings: visual scoring after about 3 weeks, 100% = plants have died, 0% = like control plants
# Summary of the method: as §4
# [13] = tested on: Amaranthus retroflexus (AMARE); test: Herbicidal pre-emergence action, test C (Table C6); settings: visual scoring after about 3 weeks, 100% = plants have died, 0% = like control plants
# Summary of the method: as §4
# [14] = tested on: Matricaria inodora (MATIN); test: Herbicidal pre-emergence action, test C (Table C7); settings: visual scoring after about 3 weeks, 100% = plants have died, 0% = like control plants
# Summary of the method: as §4
# Stellaria media (STEME) [15] = test: Herbicidal pre-emergence action, test C (Table C8); settings: visual scoring after about 3 weeks, 100% = plants have died, 0% = like control plants
# Summary of the method: as §4
# [16] = tested on: Alopecurus myosuroides (ALOMY); test: Herbicidal pre-emergence action, test C (Table C9); settings: visual scoring after about 3 weeks, 100% = plants have died, 0% = like control plants
# Excerpt: as §3
# [17] = tested on: Digitaria sanguinalis (DIGSA); test: Herbicidal pre-emergence action, test C (Table C10); settings: visual scoring after about 3 weeks, 100% = plants have died, 0% = like control plants
# Summary of the method: as §4
# Veronica persica (VERPE) [18] = test: Herbicidal pre-emergence action, test C (Table C12); settings: visual scoring vs untreated controls
# Summary of the method: as §4
# [19] = tested on: harmful plants ABUTH, AMARE, ECHCG, LOLRI, MATIN, POAAN, SETVI, STEME, ALOMY, DIGSA, KCHSC and VERPE; test: Herbicidal post-emergence action, summary of Tables B1-B12; settings: application rate of 1280 or 320 g of active ingredient per hectare; summary in words
# Summary of the method: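 Activity scored by eye roughly 3 weeks post-treatment against untreated plants, from 0% (no effect) to 100% (plants dead). Application rates were 1280 or 320 g/ha, as aqueous WP/EC spray plus 0.5% additive at 600 L/ha, onto one-leaf-stage weeds grown 2–3 weeks in sandy loam.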
# [20] = tested on: harmful plants ABUTH, AMARE, ECHCG, LOLRI, MATIN, POAAN, SETVI, STEME, ALOMY, DIGSA, KCHSC and VERPE; test: Herbicidal pre-emergence action (test C), summary of Tables C1-C12; settings: application rate of 1280 or 320 g of active ingredient per hectare; summary in words
# Summary of the method: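 Visual % damage versus untreated plants (0% = like control, 100% = died) was scored after about 3 weeks in the greenhouse. Before emergence, seeds sown in sandy loam got a soil-surface spray of compound as WP or EC plus 0.5% additive, using 600 L/ha water at rates of 1280 or 320 g/ha.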
# Bassia scoparia (KCHSC) [21] = test: Herbicidal pre-emergence action, test C (Table C11); settings: dosage 1280 g/ha, visual scoring vs untreated controls
# Excerpt: as §3
SMILES,Post-emergence action against Poa annua (POAAN) (Poa annua (POAAN) [2]; 320 g/ha),Post-emergence action against Poa annua (POAAN) (Poa annua (POAAN) [2]; 1280 g/ha),Post-emergence action against Abutilon theophrasti (ABUTH) ([3]; 320 g/ha),Post-emergence action against Abutilon theophrasti (ABUTH) ([3]; 1280 g/ha),Post-emergence action against Amaranthus retroflexus (AMARE) ([4]; dosage 1280 g/ha),Post-emergence action against Stellaria media (STEME) (Stellaria media (STEME) [5]; dosage 320 g/ha),Post-emergence action against Stellaria media (STEME) (Stellaria media (STEME) [5]; dosage 1280 g/ha),Post-emergence action against Bassia scoparia (KCHSC) (Bassia scoparia (KCHSC) [8]; dosage 1280 g/ha),Post-emergence action against Veronica persica (VERPE) (Veronica persica (VERPE) [9]; dosage 320 g/ha),Post-emergence action against Veronica persica (VERPE) (Veronica persica (VERPE) [9]; dosage 1280 g/ha),Pre-emergence action against Poa annua (POAAN) (Poa annua (POAAN) [11]; dosage 320 g/ha),Pre-emergence action against Poa annua (POAAN) (Poa annua (POAAN) [11]; dosage 1280 g/ha),Pre-emergence action against Setaria viridis (SETVI) (Setaria viridis (SETVI); dosage 1280 g/ha),Pre-emergence action against Amaranthus retroflexus (AMARE) ([13]; dosage 320 g/ha),Pre-emergence action against Amaranthus retroflexus (AMARE) ([13]; dosage 1280 g/ha),Pre-emergence action against Stellaria media (STEME) (Stellaria media (STEME) [15]; dosage 320 g/ha),Pre-emergence action against Stellaria media (STEME) (Stellaria media (STEME) [15]; dosage 1280 g/ha),Pre-emergence action against Digitaria sanguinalis (DIGSA) ([17]; dosage 1280 g/ha),Pre-emergence action against Veronica persica (VERPE) (Veronica persica (VERPE) [18]; dosage 320 g/ha),Pre-emergence action against Veronica persica (VERPE) (Veronica persica (VERPE) [18]; dosage 1280 g/ha),other results
Cc1cccc(Oc2ncc(Cl)cc2F)c1-c1cc(C(F)F)on1 [Example 1-10],100%,100%,90%,100%,100%,100%,100%,100%,100%,100%,100%,100%,100%,100%,100%,100%,100%,100%,100%,100%,Post-emergence action against Echinochloa crus-galli (ECHCG) [1]: 100%; Post-emergence action against Alopecurus myosuroides (ALOMY) ([6]; 320 g/ha): 100%; Post-emergence action against Alopecurus myosuroides (ALOMY) ([6]; 1280 g/ha): 100%; Post-emergence action against Digitaria sanguinalis (DIGSA) ([7]; dosage 320 g/ha): 100%; Post-emergence action against Digitaria sanguinalis (DIGSA) ([7]; dosage 1280 g/ha): 100%; Pre-emergence action against Echinochloa crus-galli (ECHCG) [10]: 90%; Pre-emergence action against Lolium rigidum (LOLRI) (Lolium rigidum (LOLRI)): 90%; Pre-emergence action against Setaria viridis (SETVI) (Setaria viridis (SETVI); dosage 320 g/ha): 100%; Pre-emergence action against Abutilon theophrasti (ABUTH) ([12]; dosage 320 g/ha): 100%; Pre-emergence action against Abutilon theophrasti (ABUTH) ([12]; dosage 1280 g/ha): 100%; Pre-emergence action against Matricaria inodora (MATIN) ([14]; dosage 320 g/ha): 100%; Pre-emergence action against Matricaria inodora (MATIN) ([14]; dosage 1280 g/ha): 100%; Pre-emergence action against Alopecurus myosuroides (ALOMY) ([16]; dosage 320 g/ha): 100%; Pre-emergence action against Alopecurus myosuroides (ALOMY) ([16]; dosage 1280 g/ha): 100%; Pre-emergence action against Digitaria sanguinalis (DIGSA) ([17]; dosage 320 g/ha): 100%; herbicidal activity against the harmful plants of Tables B1-B12 in post-emergence treatment [19]: very good herbicidal activity; herbicidal activity against the harmful plants of Tables C1-C12 in pre-emergence treatment [20]: very good herbicidal activity
Fc1cccnc1Oc1ccccc1-c1cc(C(F)F)no1 [Example 1-47],100%,100%,90%,100%,100%,100%,100%,90%,100%,100%,100%,100%,90%,100%,100%,100%,100%,90%,90%,100%,Post-emergence action against Amaranthus retroflexus (AMARE) ([4]; dosage 320 g/ha): 90%; Post-emergence action against Bassia scoparia (KCHSC) (Bassia scoparia (KCHSC) [8]; dosage 320 g/ha): 90%; Pre-emergence action against Bassia scoparia (KCHSC) (Bassia scoparia (KCHSC) [21]): 90%; herbicidal activity against the harmful plants of Tables B1-B12 in post-emergence treatment [19]: very good herbicidal activity; herbicidal activity against the harmful plants of Tables C1-C12 in pre-emergence treatment [20]: very good herbicidal activity
